Assay results taken from patent US9532997B2, “Compositions and methods for promoting intestinal stem cell function” (Whitehead Institute for Biomedical Research, priority 2012, dated 2017).

Legend:
Format in all cases: in vivo, mice
[1] = target: T1, mTORC1 (Mus musculus, UniProt P26883+Q9JLN9); assay: Phospho-S6 (P-S6) immunostain as mTORC1 reporter in intestine / sorted Paneth cells; details: overnight fasted mice treated before refeeding 5 hours, FIG. 2a
T1 construct: from tissue; host or cells: mouse small intestine sections, isolated crypts and sorted Paneth cells
Source text: Mice were housed in the Unit for Laboratory Animal Medicine at the Whitehead Institute for Biomedical Research. Lgr5-EGFP-IRES-CreERT2 mice (Strain name: B6.129P2-Lgr5tm1(cre/ERT2)Cle/J, Stock Number: 008875) were purchased from Jackson Laboratories. UbiquitinC-CreERT2 mice were obtained from the Jackson Laboratory (Strain Name: B6; 129S-Tg(UBC-cre/ERT2)1Ejb/J, Stock Number: 007001). Rictor floxed mice were generated as described in^27 and backcrossed to C57BL/6 for at least 6 generations. TSC1^loxp/loxp mice were the generous gift of D. Kwiatkowski (Harvard Medical School) and backcrossed to C57BL/6 for at least 6 generations. Rosa26-CreERT2 mice (Rosa26 or R26) were obtained from the Jackson Laboratory (Strain 15 Name: B6.129-Gt(ROSA)26Sor^iml(cre/ERT2)Tyj/J, Stock Number 008463). CR was achieved by providing individual or paired mice a daily portion of a chow diet fortified with vitamins and minerals amounting to 60% of the daily food intake of their ad libitum counterparts^20. All adult mice used in CR experiments were between the ages of 10 to 24 weeks and were sacrificed prior to their daily feeding. Rictor or TSC1 was excised by treatment with tamoxifen suspended in corn or sunflower seed oil (Spectrum) at a concentration of 10 mg/mL, and 200 μl per 25 g of body weight was injected intraperitoneally into mice once daily for 5-7 days. […] Mice were allowed to recover for at least 7 days after the last tamoxifen injection prior to any experiments. In vivo fate mapping in Lgr5-EGFP-IRES-reERT2; Rosa26loxpstoploxp-LacZ compound mice was done with a single injection of tamoxifen given at 200 μl per 25 g. As described previously^28, Rapamycin (LC Laboratories) was administered by intraperitoneal injection for 7 to 28 consecutive doses at 4 mg/kg. It was reconstituted in absolute ethanol at 10 mg/ml and diluted in 5% Tween-80 (Sigma) and 5% PEG-400 (Hampton Research) before injection. The final volume of all injections was 200 μl. Regular insulin (Lilly) was administered at 0.75 U/kg diluted in PBS 20 minutes prior to sacrificing fasted mice. […]

[2] = test system: cleaved caspase 3; assay: Enterocyte apoptosis, cleaved caspase 3 immunostain; details: n=3 per group, FIG. 7
Protocol: (§1) Tissues were fixed in 10% formalin, paraffin embedded, and sectioned. Antigen retrieval was performed with Borg Decloaker RTU solution (Biocare Medical) in a pressurized Decloaking Chamber (Biocare Medical) for 3 minutes. Antibodies: rat anti-BrdU (1:2000; Abeam 6326), rabbit phospho-S6 Ser235/236 (1:500, CST 4858), rabbit cleaved caspase 3 (1:500; CST 9664), rabbit chromogranin A (1:3000, Abeam 15160), rabbit Lysozyme (1:2000; Thermo), rabbit Bst-1 (1:1000, Abeam 74301) and mouse Bst-1 (1:100 to 500, BD Pharmingen). For mouse Bst-1, the M.O.M (mouse on mouse) kit was used according to the manufacturer's instructions (Vector labs PK-2200). Biotin conjugated secondary donkey anti-rabbit or rat antibodies were used from Jackson ImmunoResearch. The Vectastain Elite ABC immunoperoxidase detection kit (Vector Labs PK-6101) followed by Dako Liquid DAB+ Substrate (Dako) was used for visualization. For immunofluorescence Alexa Fluor 568 secondary antibodies (Invitrogen) were used. All antibody incubations were performed with Common Antibody Diluent (Biogenex).

[3] = test system: Bst-1; assay: Bst-1 protein expression by immunoblots of crypts and immunostains of Paneth cells; details: FIG. 4c
Protocol: as §1
Antibodies: rabbit anti phospho-T389 S6K1, phospho-S240/244 S6, S6K1, and S6 from CST; rabbit Bst-1 (ab74301) from Abeam; mouse anti_-actin (clone AC-15) from Sigma. […] Proteins extracts were denatured by the addition of sample buffer, boiled for […], resolved by SDS-PAGE, and analyzed by immunoblotting.

- mTORC1 activation (P-S6) in Paneth cells by feeding [1]: blocked this activation
SMILES: CO[C@H]1C[C@@H]2CC[C@@H](C)[C@@](O)(O2)C(=O)C(=O)N2CCCC[C@H]2C(=O)O[C@H]([C@H](C)C[C@@H]2CC[C@@H](O)[C@H](OC)C2)CC(=O)[C@H](C)/C=C(\C)[C@@H](O)[C@@H](OC)C(=O)[C@H](C)C[C@H](C)/C=C/C=C/C=C/1C [Rapamycin, sirolimus]
- cleaved caspase 3 (enterocyte apoptosis) vs AL controls [2]: no increase
- Bst-1 protein expression ([3]; crypts (immunoblots) and Paneth cells (immunostains) of treated mice, d): increased
- SDS-PAGE mobility of Bst-1 ([3]; immunoblots of crypts): affected the SDS-PAGE mobility of Bst-1
